Reference: ChEMBL document CHEMBL5338728, “Advancing Strategies for Proteolysis-Targeting Chimera Design” (J Med Chem, 2023)

Key:
[1] = target: T1, von Hippel-Lindau disease tumor suppressor/SWI/SNF-related matrix-associated actin-dependent regulator of chromatin subfamily A member 2 (Homo sapiens, UniProt P51531+P40337); assay: Protac activity at VHL/SMARCA2 in human NCI-H1568 cells assessed as protein degradation; assay type: cell-based
Target sequence in this assay (P51531 whole entry): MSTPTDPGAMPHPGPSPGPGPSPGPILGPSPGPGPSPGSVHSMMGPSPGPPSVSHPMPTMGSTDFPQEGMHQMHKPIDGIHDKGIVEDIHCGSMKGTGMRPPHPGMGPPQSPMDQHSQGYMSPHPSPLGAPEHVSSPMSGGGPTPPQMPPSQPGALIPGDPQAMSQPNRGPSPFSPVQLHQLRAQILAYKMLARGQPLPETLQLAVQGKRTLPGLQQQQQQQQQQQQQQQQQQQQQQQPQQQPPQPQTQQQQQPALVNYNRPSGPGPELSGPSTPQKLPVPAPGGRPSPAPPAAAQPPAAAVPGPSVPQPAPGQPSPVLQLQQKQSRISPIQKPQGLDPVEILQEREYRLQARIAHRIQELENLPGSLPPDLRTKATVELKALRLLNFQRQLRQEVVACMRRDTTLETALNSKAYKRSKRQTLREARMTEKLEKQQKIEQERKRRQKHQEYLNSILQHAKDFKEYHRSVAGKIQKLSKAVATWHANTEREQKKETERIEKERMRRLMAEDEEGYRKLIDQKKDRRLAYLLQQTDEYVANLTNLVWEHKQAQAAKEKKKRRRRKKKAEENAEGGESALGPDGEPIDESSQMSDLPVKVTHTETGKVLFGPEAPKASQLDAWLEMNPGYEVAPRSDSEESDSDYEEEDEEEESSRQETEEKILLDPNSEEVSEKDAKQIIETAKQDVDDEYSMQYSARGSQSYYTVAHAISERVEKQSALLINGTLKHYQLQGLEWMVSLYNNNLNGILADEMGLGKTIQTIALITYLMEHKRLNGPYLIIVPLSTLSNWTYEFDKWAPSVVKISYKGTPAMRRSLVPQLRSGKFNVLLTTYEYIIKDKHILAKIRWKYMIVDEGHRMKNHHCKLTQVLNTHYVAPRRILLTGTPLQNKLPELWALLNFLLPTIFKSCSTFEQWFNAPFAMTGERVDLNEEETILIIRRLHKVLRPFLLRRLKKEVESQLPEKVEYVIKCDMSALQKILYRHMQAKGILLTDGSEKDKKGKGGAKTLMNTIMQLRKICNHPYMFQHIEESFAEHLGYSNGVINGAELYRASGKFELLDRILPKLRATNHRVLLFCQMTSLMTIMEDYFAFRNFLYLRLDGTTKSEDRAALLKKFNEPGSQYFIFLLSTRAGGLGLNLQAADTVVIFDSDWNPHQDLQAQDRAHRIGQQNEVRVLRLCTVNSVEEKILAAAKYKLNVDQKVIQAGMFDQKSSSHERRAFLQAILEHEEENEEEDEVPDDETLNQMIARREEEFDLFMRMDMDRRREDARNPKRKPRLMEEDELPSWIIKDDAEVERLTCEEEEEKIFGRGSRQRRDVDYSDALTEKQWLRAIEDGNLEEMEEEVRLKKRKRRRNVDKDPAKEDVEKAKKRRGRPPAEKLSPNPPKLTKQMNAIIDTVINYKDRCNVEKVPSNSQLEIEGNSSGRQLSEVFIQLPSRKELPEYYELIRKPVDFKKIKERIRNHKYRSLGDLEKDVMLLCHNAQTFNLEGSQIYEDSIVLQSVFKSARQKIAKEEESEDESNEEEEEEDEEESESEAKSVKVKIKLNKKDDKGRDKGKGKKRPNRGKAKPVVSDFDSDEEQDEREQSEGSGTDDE
Target sequence in this assay (P40337 whole entry): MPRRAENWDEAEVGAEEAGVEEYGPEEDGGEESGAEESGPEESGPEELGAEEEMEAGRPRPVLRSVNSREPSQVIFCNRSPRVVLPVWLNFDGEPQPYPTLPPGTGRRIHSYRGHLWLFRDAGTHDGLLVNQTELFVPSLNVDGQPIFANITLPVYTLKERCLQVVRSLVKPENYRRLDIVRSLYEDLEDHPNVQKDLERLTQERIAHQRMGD

[2] = target: T2, Protein polybromo-1/von Hippel-Lindau disease tumor suppressor (Homo sapiens, UniProt Q86U86+P40337); assay: Protac activity at VHL/PBRM1 in human NCI-H1568 cells assessed as protein degradation; assay type: cell-based
[3] = target: T2, Protein polybromo-1/von Hippel-Lindau disease tumor suppressor; assay: Protac activity at VHL/PBRM1 in human MV4-11 cells assessed as protein degradation; assay type: cell-based
[4] = target: T3, Protein cereblon/Bromodomain-containing protein 4 (Homo sapiens, UniProt O60885+Q96SW2); assay: Protac activity at CRBN/BRD4 in HEK293 cells assessed as protein degradation by measuring maximal efficacy relative to control; assay type: cell-based
[5] = target: T3, Protein cereblon/Bromodomain-containing protein 4; assay: Protac activity at CRBN/BRD4 in human 22Rv1 cells assessed as degradation of BRD4; assay type: cell-based
[6] = target: von Hippel-Lindau disease tumor suppressor/Apoptosis regulator Bcl-2 (Homo sapiens, UniProt P10415+P40337); assay: Protac activity at VHL/BCL-2 in human HEK293T cells assessed as protein degradation; assay type: cell-based
[7] = target: von Hippel-Lindau disease tumor suppressor/Bcl-2-like protein 1 (Homo sapiens, UniProt Q07817+P40337); assay: Protac activity at VHL/BCL-xL in human HEK293T cells assessed as protein degradation; assay type: cell-based
[8] = Oral bioavailability in mouse at 30 mg/kg; assay type: ADME, organism-based; details: in vivo
[9] = target: T1, von Hippel-Lindau disease tumor suppressor/SWI/SNF-related matrix-associated actin-dependent regulator of chromatin subfamily A member 2; assay: Protac activity at VHL/SMARCA2 in human RKO cells assessed as protein degradation incubated for 18 hrs by capillary electrophoresis analysis; assay type: cell-based
Target sequence in this assay (P51531 whole entry): as the sequence (P51531 whole entry) above
Target sequence in this assay (P40337 whole entry): as the sequence (P40337 whole entry) above

[10] = test system: von Hippel-Lindau disease tumor suppressor/Leucine-rich repeat serine/threonine-protein kinase 2 (Mus musculus), Q5S006+P40338 [G2019S]; assay: Protac activity at VHL/LRRK2 G2019S mutant in mouse MEF cells assessed as protein degradation at 33 nM after 4 hrs by Western blot analysis relative to control; assay type: cell-based
[11] = Cmax in C57BL/6 mouse at 30 mg/kg, po; assay type: ADME, organism-based; set-up: dose 30 mg/kg, route po; details: in vivo
[12] = target: von Hippel-Lindau disease tumor suppressor/Leucine-rich repeat serine/threonine-protein kinase 2 (Mus musculus, UniProt Q5S006+P40338, G2019S); assay: Protac activity at VHL/LRRK2 G2019S mutant in mouse MEF cells assessed as protein degradation after 4 hrs by Western blot analysis; assay type: cell-based
[13] = target: T4, von Hippel-Lindau disease tumor suppressor/Leucine-rich repeat serine/threonine-protein kinase 2 (Mus musculus) (UniProt Q5S006+P40338); assay: Protac activity at VHL/wild type LRRK2 in mouse MEF cells assessed as induction of protein degradation by measuring maximal efficacy after 4 hrs by Western blot analysis relative to control; assay type: cell-based
[14] = Cmax in C57BL/6 mouse at 30 mg/kg, ip; assay type: ADME, organism-based; set-up: dose 30 mg/kg, route ip; details: in vivo
[15] = Tmax in C57BL/6 mouse at 30 mg/kg, ip; assay type: ADME, organism-based; details: in vivo
[16] = target: T4, von Hippel-Lindau disease tumor suppressor/Leucine-rich repeat serine/threonine-protein kinase 2 (Mus musculus); assay: Protac activity at VHL/wild type LRRK2 in mouse MEF cells assessed as protein degradation at 33 nM after 4 hrs by Western blot analysis relative to control; assay type: cell-based
[17] = Tmax in C57BL/6 mouse at 30 mg/kg, po; assay type: ADME, organism-based; details: in vivo
[18] = test system: von Hippel-Lindau disease tumor suppressor/Leucine-rich repeat serine/threonine-protein kinase 2 (Mus musculus), Q5S006+P40338 [G2019S]; assay: Protac activity at VHL/LRRK2 G2019S mutant in mouse MEF cells assessed as induction of protein degradation by measuring maximal efficacy after 4 hrs by Western blot analysis relative to control; assay type: cell-based
[19] = target: von Hippel-Lindau disease tumor suppressor/Leucine-rich repeat serine/threonine-protein kinase 2 (Mus musculus, UniProt Q5S006+P40338); assay: Protac activity at VHL/wild type LRRK2 in mouse MEF cells assessed as protein degradation after 4 hrs by Western blot analysis; assay type: cell-based
[20] = test system: von Hippel-Lindau disease tumor suppressor/Leucine-rich repeat serine/threonine-protein kinase 2 (Mus musculus), Q5S006+P40338 [G2019S]; assay: Protac activity at VHL/LRRK2 G2019S mutant in mouse MEF cells assessed as protein degradation at 1 uM after 4 hrs by Western blot analysis relative to control; assay type: cell-based
[21] = Oral bioavailability in C57BL/6 mouse at 30 mg/kg; assay type: ADME, organism-based; details: in vivo
[22] = target: T5, von Hippel-Lindau disease tumor suppressor/Fibroblast growth factor receptor 1 (Homo sapiens, UniProt P11362+P40337); assay: Protac activity at VHL/FGFR1 in human CC-LP-1 cells assessed as protein degradation; assay type: cell-based
[23] = target: T5, von Hippel-Lindau disease tumor suppressor/Fibroblast growth factor receptor 1; assay: Protac activity at VHL/FGFR1 in human CC-LP-1 cells assessed as protein degradation by measuring maximal efficacy relative to control; assay type: cell-based
[24] = target: Protein cereblon/Tyrosine-protein kinase BTK (Homo sapiens) (UniProt Q06187+Q96SW2); assay: Protac activity at CRBN/BTK in human NAMALVA cells assessed as protein degradation by measuring maximal efficacy after 24 hrs by Western blot analysis relative to control; assay type: cell-based
[25] = target: T6, Protein fem-1 homolog B/Bromodomain-containing protein 4 (Homo sapiens, UniProt O60885+Q9UK73); assay: Protac activity at FEM1B/BRD4 in HEK293T cells assessed as degradation of BRD4; assay type: cell-based
[26] = target: T6, Protein fem-1 homolog B/Bromodomain-containing protein 4; assay: Protac activity at FEM1B/BRD4 in HEK293T cells assessed as induction of protein degradation by measuring maximal efficacy relative to control; assay type: cell-based
[27] = target: E3 ubiquitin-protein ligase XIAP/Tyrosine-protein kinase BTK (Homo sapiens, UniProt P98170+Q06187); assay: Protac activity at IAP/BTK in human THP-1 cells assessed as protein degradation; assay type: cell-based
[28] = target: T1, von Hippel-Lindau disease tumor suppressor/SWI/SNF-related matrix-associated actin-dependent regulator of chromatin subfamily A member 2; assay: Protac activity at VHL/SMARCA2 in human RKO cells assessed as induction of protein degradation by measuring maximal efficacy incubated for 18 hrs by capillary electrophoresis analysis relative to control; assay type: cell-based
[29] = target: BRD4/E3 ubiquitin-protein ligase Mdm2 (Homo sapiens) (UniProt Q00987+O60885); assay: Protac activity at MDM2/BRD4 in human HCT-116 cells assessed as induction of protein degradation by measuring maximal efficacy relative to control; assay type: cell-based
[30] = target: von Hippel-Lindau disease tumor suppressor/ALK tyrosine kinase receptor (Homo sapiens, UniProt Q9UM73+P40337); assay: Protac activity at VHL/ALK in human SR cells assessed as protein degradation
[31] = target: T3, Protein cereblon/Bromodomain-containing protein 4; assay: Protac activity at CRBN/BRD4 in HEK293T cells assessed as protein degradation by immunoblot analysis; assay type: cell-based
[32] = target: T7, Protein cereblon/Myc proto-oncogene protein (Homo sapiens, UniProt P01106+Q96SW2); assay: PROTAC activity at MYC/CRBN in human PSN1 cells assessed as degradation; assay type: cell-based
[33] = target: T7, Protein cereblon/Myc proto-oncogene protein; assay: PROTAC activity at MYC/CRBN in human HCT-116 cells assessed as degradation; assay type: cell-based

T3 sequence (Q96SW2 whole entry, looked up, other chains not shown): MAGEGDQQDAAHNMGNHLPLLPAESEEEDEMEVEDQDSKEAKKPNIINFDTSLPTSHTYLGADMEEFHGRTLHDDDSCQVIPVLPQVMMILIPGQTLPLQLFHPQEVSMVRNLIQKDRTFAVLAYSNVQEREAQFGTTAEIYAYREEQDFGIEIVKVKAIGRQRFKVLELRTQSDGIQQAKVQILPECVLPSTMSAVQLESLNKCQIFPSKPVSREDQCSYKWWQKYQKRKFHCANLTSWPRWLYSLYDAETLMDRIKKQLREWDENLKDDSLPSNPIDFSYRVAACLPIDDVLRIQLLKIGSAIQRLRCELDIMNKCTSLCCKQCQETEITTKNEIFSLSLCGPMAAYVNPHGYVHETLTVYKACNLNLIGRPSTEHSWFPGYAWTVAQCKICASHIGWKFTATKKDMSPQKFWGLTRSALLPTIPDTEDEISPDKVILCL
T6 sequence (Q9UK73 whole entry, looked up, other chains not shown): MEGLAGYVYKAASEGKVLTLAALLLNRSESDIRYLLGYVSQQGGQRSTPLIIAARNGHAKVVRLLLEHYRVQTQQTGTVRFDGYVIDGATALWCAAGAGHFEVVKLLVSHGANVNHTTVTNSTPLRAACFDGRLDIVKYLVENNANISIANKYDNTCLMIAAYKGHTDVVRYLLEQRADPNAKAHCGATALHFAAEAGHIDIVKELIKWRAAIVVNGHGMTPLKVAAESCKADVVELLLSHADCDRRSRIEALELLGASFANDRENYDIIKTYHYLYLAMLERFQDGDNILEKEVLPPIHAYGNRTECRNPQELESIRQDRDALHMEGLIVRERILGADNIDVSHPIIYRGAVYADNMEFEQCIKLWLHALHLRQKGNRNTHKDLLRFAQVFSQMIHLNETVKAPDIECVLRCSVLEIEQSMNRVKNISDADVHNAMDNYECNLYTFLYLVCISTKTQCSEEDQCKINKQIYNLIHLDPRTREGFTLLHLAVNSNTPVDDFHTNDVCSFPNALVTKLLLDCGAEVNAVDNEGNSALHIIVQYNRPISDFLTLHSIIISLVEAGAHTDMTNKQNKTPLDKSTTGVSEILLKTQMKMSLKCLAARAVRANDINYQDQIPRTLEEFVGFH
T7 sequence (P01106 whole entry): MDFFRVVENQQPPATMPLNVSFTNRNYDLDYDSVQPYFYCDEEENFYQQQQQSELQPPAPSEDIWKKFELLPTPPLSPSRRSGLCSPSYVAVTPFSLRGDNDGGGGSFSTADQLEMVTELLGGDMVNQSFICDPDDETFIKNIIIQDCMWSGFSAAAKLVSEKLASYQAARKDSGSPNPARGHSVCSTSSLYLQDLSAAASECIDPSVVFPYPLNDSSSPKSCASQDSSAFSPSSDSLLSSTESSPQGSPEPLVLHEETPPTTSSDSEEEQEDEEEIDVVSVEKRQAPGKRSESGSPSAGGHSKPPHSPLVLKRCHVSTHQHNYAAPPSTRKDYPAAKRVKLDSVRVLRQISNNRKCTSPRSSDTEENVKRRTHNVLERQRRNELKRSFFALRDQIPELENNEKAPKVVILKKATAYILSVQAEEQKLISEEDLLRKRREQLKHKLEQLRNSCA
T7 sequence (Q96SW2 whole entry): as the sequence (Q96SW2 whole entry, looked up, other chains not shown) above
Sequence of E3 ubiquitin-protein ligase XIAP/Tyrosine-protein kinase BTK (P98170 whole entry): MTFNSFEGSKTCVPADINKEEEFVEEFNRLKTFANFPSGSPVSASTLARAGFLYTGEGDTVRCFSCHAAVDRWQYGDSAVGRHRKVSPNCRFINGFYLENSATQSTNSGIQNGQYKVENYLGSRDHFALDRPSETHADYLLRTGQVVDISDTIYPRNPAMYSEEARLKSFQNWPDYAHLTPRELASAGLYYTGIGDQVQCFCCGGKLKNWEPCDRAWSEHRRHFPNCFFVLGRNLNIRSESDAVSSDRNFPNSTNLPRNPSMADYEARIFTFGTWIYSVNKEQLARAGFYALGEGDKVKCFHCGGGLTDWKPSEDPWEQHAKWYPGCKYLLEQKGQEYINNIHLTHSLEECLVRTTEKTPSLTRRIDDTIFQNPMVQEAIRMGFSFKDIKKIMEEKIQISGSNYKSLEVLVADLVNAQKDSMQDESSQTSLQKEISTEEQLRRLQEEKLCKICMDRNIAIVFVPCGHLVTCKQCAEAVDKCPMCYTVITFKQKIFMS
Sequence of E3 ubiquitin-protein ligase XIAP/Tyrosine-protein kinase BTK (Q06187 whole entry): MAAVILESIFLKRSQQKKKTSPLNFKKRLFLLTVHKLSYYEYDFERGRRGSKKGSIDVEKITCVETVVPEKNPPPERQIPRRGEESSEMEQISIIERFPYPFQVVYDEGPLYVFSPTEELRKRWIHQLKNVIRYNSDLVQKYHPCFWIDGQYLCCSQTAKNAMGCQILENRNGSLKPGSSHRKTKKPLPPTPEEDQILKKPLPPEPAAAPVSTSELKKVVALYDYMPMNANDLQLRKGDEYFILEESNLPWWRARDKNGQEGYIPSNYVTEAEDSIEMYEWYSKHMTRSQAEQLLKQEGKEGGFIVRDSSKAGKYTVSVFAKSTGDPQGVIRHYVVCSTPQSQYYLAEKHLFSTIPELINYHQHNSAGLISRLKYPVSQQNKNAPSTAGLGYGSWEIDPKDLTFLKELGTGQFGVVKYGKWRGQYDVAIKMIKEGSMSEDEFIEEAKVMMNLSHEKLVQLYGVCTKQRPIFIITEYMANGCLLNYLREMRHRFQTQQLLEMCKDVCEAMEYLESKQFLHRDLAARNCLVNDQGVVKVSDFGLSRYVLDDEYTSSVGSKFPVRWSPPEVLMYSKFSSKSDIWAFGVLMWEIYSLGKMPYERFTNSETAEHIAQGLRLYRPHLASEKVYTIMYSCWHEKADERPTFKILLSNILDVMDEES

## Cc1ncsc1-c1ccc(CNC(=O)[C@@H]2C[C@@H](O)CN2C(=O)[C@@H](NC(=O)C2(F)CC2)C(C)(C)C)c(OCCOc2ccc(CN3CCN(c4cc(-c5ccccc5O)nnc4N)CC3)cc2)c1
[1]
  DC50: 3.3 nM
[2]
  DC50: 15.6 nM
[3]
  DC50: 32 nM

## Cc1sc2c(c1C)C(c1ccc(Cl)cc1)=N[C@@H](CC(=O)NCCCCNC(=O)COc1cccc3c1C(=O)N(C1CCC(=O)NC1=O)C3=O)c1nnc(C)n1-2 (some centres not stated)
[4]
  Emax: 93%

## Cc1sc2c(c1C)C(c1ccc(Cl)cc1)=N[C@H](CC(=O)Nc1cccc(OCCOCCOCCNc3cccc4nnn(C5CCC(=O)NC5=O)c(=O)c34)c1)c1nnc(C)n1-2 (some centres not stated)
[5]
  DC50: 0.32 nM

## Cc1ncsc1-c1ccc([C@H](C)NC(=O)[C@@H]2C[C@@H](O)CN2C(=O)[C@@H](NC(=O)CCCCCCC(=O)N2CCN(C[C@]3(C)CCC(c4ccc(Cl)cc4)=C(CN4CCN(c5ccc(C(=O)NS(=O)(=O)c6ccc(N[C@H](CCN7CCOCC7)CSc7ccccc7)c(S(=O)(=O)C(F)(F)F)c6)cc5)CC4)C3)CC2)C(C)(C)C)cc1
[6]
  DC50: 48 nM
[7]
  DC50: 6 nM

## Cc1ncsc1-c1ccc([C@H](CCCCCN2CCC(c3ccc4c(c3)n(C3CCCC3)c3nc(=O)c5c(Br)cccc5n43)CC2)NC(=O)C2C[C@@H](O)CN2C(=O)[C@@H](NC(=O)C2(F)CC2)C(C)(C)C)cc1 (some centres not stated)
[8]
  bioavailability: 3%
[9]
  DC50: 32 nM

## CNc1nc(Nc2ccc(C(=O)N3CCN(C[C@H]4CC[C@H](CSC(C)(C)[C@H](NC(=O)C5(F)CC5)C(=O)N5C[C@H](O)C[C@@H]5C(=O)NCc5ccc(-c6scnc6C)cc5)CC4)CC3)cc2OC)ncc1Cl
[10]
  Activity: 50%
[11]
  Cmax: 3620 ng/mL
[12]
  DC50: 14 nM
[13]
  Emax: 82%
[14]
  Cmax: 7700 ng/mL
[15]
  Tmax: 0.25 h
[16]
  Activity: 20%
[17]
  Tmax: 2 h
[18]
  Emax: 90%
[19]
  DC50: 32 nM
[20]
  Activity: 30%
[21]
  bioavailability: 15%

## COc1cc(OC)c(Cl)c(NC(=O)N(C)c2cc(Nc3ccc(N4CCN(CC(=O)N[C@H](C(=O)N5C[C@H](O)C[C@H]5C(=O)N[C@@H](C)c5ccc(-c6scnc6C)cc5)C(C)(C)C)CC4)cc3)ncn2)c1Cl
[22]
  DC50: 4.35 nM
[23]
  Emax: 85%

## CNc1nc(Nc2ccc(C(=O)N3CCN(CCCOc4cc(-c5scnc5C)ccc4CNC(=O)[C@H]4C[C@@H](O)CN4C(=O)[C@@H](NC(=O)C4(F)CC4)C(C)(C)C)CC3)cc2OC)ncc1Cl
[10]
  Activity: 60%

## Nc1ncnc2c1c(-c1ccc(Oc3ccccc3)cc1)nn2C1CCN(CCOCCOCC(=O)Nc2ccc3c(c2)C(=O)N(C2CCC(=O)NC2=O)C3=O)CC1 (configuration not stated)
[24]
  Emax: 99%

## Cc1sc2c(c1C)C(c1ccc(Cl)cc1)=N[C@@H](CC(=O)NCCCCNC(=O)CN1CCOc3cc(N(CCC#N)C(=O)CCl)ccc31)c1nnc(C)n1-2
[25]
  DC50: 250 nM
[26]
  Emax: 94%

## CN[C@@H](C)C(=O)N[C@H](C(=O)N1CCC[C@H]1c1nc(C(=O)c2ccc(F)cc2)cs1)C1CCN(CCCC(=O)N2CCC[C@@H](n3nc(-c4ccc(Oc5ccc(F)cc5F)cc4)c(C(N)=O)c3N)C2)CC1
[27]
  DC50: 4700 nM

## Cc1ncsc1-c1ccc(OCCCN2CCC(c3ccc4c(c3)n(C3CCCC3)c3nc(=O)c5c(Br)cccc5n43)CC2)c(CNC(=O)[C@@H]2C[C@@H](O)CN2C(=O)[C@@H](NC(=O)C2(F)CC2)C(C)(C)C)c1
[9]
  DC50: 78 nM
[28]
  Emax: 46%

## COc1cc(C(=O)NCCOCCOCCOCCNC(=O)C[C@@H]2N=C(c3ccc(Cl)cc3)c3c(sc(C)c3C)-n3c(C)nnc32)ccc1NC(=O)[C@@H]1N[C@@H](CC(C)(C)C)[C@](C#N)(c2ccc(Cl)cc2F)[C@H]1c1cccc(Cl)c1F
[29]
  Emax: 98%

## COc1cc(N2CCC(N3CCN(C(=O)CCCCCCCCC(=O)N[C@H](C(=O)N4C[C@H](O)C[C@H]4C(=O)NCc4ccc(-c5scnc5C)cc4)C(C)(C)C)CC3)CC2)ccc1Nc1ncc(Cl)c(Nc2ccccc2P(C)(C)=O)n1
[30]
  DC50: 7.5 nM

## COC(=O)C[C@@H]1N=C(c2ccc(Cl)cc2)c2c(sc(C(=O)NCCCCCNc3ccc4c(c3)C(=O)N(C3CCC(=O)NC3=O)C4=O)c2C)-n2c(C)nnc21 (some centres not stated)
[31]
  DC50: 5 nM

## Cc1ncsc1-c1ccc([C@H](CC[C@H](C)CCN2CCC(c3ccc4c(c3)n(C3CCCC3)c3nc(=O)c5c(Br)cccc5n43)CC2)NC(=O)C2C[C@@H](O)CN2C(=O)[C@@H](NC(=O)C2(F)CC2)C(C)(C)C)cc1 (some centres not stated)
[8]
  bioavailability: 22%
[9]
  DC50: 1 nM

## CC(C)c1ccc(/C=C2\SC(=O)N(CCCCCCCCNC(=O)c3ccc4c(c3)C(=O)N(C3CCC(=O)NC3=O)C4=O)C2=O)cc1 (configuration not stated)
[32]
  DC50: ~10000 nM
[33]
  DC50: 5000 nM
